# Test results reported in PubChem BioAssay AID256 (DTP/NCI, 2004).
# Several values for one entry are separate records, joined by “and”; a condition that tells them apart may be missing. Equal values may be shown once. Toxic doses and inconclusive results are not listed.
# Tested on: CD2F1 mice, L1210 leukemia ip, survival T/C
# Test: NCI In Vivo Anticancer Drug Screen. Data for tumor model L1210 Leukemia (intraperitoneal) in CD2F1 (CDF1) mice
# Settings: higher = longer survival
# Method in brief: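 Transplantable tumor in mice; compound-treated vs vehicle-treated groups. Read-out = treated/control ratio of the measured endpoint.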
# [1] = endpoint: mean survival time, dose: 100.0 mg/kg/injection, schedule: Q01DX009 (ip), vehicle: saline with Tween-80
# [2] = endpoint: mean survival time, dose: 25.0 mg/kg/injection, schedule: Q01DX009 (ip), vehicle: saline with Tween-80
smiles,measurement,setting,value
CCOC(=O)C(CC1OCCO1)C1=NC(C)(C)CC(C)O1 (stereo not drawn),T/C,"endpoint: mean survival time, dose: 100.0 mg/kg/injection, schedule: Q01DX001 (ip), vehicle: acetone",93 % of control
same,T/C,"endpoint: mean survival time, dose: 200.0 mg/kg/injection, schedule: Q01DX001 (ip), vehicle: acetone",94 % of control
O=C(NC(Cc1ccc(I)cc1)C(=O)O)c1cccc(Br)c1 (stereo not drawn),T/C,"endpoint: median survival time, dose: 25.0 mg/kg/injection, schedule: Q01DX009 (ip), vehicle: Klucel (hydroxypropylcellulose) (HPC)",105 % of control
same,T/C,"endpoint: median survival time, dose: 50.0 mg/kg/injection, schedule: Q01DX009 (ip), vehicle: Klucel (hydroxypropylcellulose) (HPC)",97 % of control
same,T/C,"endpoint: median survival time, dose: 100.0 mg/kg/injection, schedule: Q01DX009 (ip), vehicle: Klucel (hydroxypropylcellulose) (HPC)",94 % of control
same,T/C,"endpoint: median survival time, dose: 200.0 mg/kg/injection, schedule: Q01DX009 (ip), vehicle: Klucel (hydroxypropylcellulose) (HPC)",94 % of control
CCOc1ccc2c(c1)c(CC(=O)O)c(C)n2C,T/C,"endpoint: mean survival time, dose: 100.0 mg/kg/injection, schedule: Q01DX001 (ip), vehicle: other",95 % of control
same,T/C,"endpoint: mean survival time, dose: 200.0 mg/kg/injection, schedule: Q01DX001 (ip), vehicle: other",98 % of control
same,T/C,"endpoint: mean survival time, dose: 400.0 mg/kg/injection, schedule: Q01DX001 (ip), vehicle: other",98 % of control
Cc1cc(=O)[nH]c(N/N=C/c2ccc(N(C)C)cc2)n1,T/C,[1],91 % of control
same,T/C,"endpoint: mean survival time, dose: 100.0 mg/kg/injection, schedule: Q04DX003 (ip), vehicle: saline with Tween-80",104 % of control
same,T/C,"endpoint: mean survival time, dose: 200.0 mg/kg/injection, schedule: Q01DX009 (ip), vehicle: saline with Tween-80",88 % of control
same,T/C,"endpoint: mean survival time, dose: 200.0 mg/kg/injection, schedule: Q04DX003 (ip), vehicle: saline with Tween-80",95 % of control
same,T/C,"endpoint: mean survival time, dose: 400.0 mg/kg/injection, schedule: Q01DX009 (ip), vehicle: saline with Tween-80",86 % of control
same,T/C,"endpoint: mean survival time, dose: 400.0 mg/kg/injection, schedule: Q04DX003 (ip), vehicle: saline with Tween-80",92 % of control
COc1ccc(NC(=O)Oc2ccc(Cl)cc2Cl)cc1,T/C,[2],112 % of control
same,T/C,"endpoint: mean survival time, dose: 25.0 mg/kg/injection, schedule: Q04DX002 (ip), vehicle: saline with Tween-80",100 % of control
same,T/C,"endpoint: mean survival time, dose: 50.0 mg/kg/injection, schedule: Q01DX009 (ip), vehicle: saline with Tween-80",112 % of control
same,T/C,"endpoint: mean survival time, dose: 50.0 mg/kg/injection, schedule: Q04DX002 (ip), vehicle: saline with Tween-80",100 % of control
same,T/C,[1],101 % of control
same,T/C,"endpoint: mean survival time, dose: 100.0 mg/kg/injection, schedule: Q04DX002 (ip), vehicle: saline with Tween-80",95 % of control and 98 % of control
same,T/C,"endpoint: mean survival time, dose: 400.0 mg/kg/injection, schedule: Q04DX002 (ip), vehicle: saline with Tween-80",102 % of control
CCN(CC)CCNc1ccc(CO)c2sc3ccccc3c(=O)c12,T/C,"endpoint: mean survival time, dose: 4.0 mg/kg/injection, schedule: Q03HX008 (ip), vehicle: saline",101 % of control
same,T/C,"endpoint: mean survival time, dose: 4.0 mg/kg/injection, schedule: Q03HX016 (ip), vehicle: saline",104 % of control
same,T/C,"endpoint: mean survival time, dose: 4.0 mg/kg/injection, schedule: Q03HX024 (ip), vehicle: saline",110 % of control
same,T/C,"endpoint: mean survival time, dose: 8.0 mg/kg/injection, schedule: Q03HX008 (ip), vehicle: saline",112 % of control
same,T/C,"endpoint: mean survival time, dose: 8.0 mg/kg/injection, schedule: Q03HX016 (ip), vehicle: saline",108 % of control
same,T/C,"endpoint: mean survival time, dose: 8.0 mg/kg/injection, schedule: Q03HX024 (ip), vehicle: saline",117 % of control
same,T/C,"endpoint: mean survival time, dose: 12.5 mg/kg/injection, schedule: Q01DX009 (ip), vehicle: Klucel (hydroxypropylcellulose) (HPC)",106 % of control
same,T/C,"endpoint: mean survival time, dose: 16.0 mg/kg/injection, schedule: Q03HX008 (ip), vehicle: saline",105 % of control
same,T/C,"endpoint: mean survival time, dose: 16.0 mg/kg/injection, schedule: Q03HX016 (ip), vehicle: saline",110 % of control
same,T/C,"endpoint: mean survival time, dose: 16.0 mg/kg/injection, schedule: Q03HX024 (ip), vehicle: saline",151 % of control
same,T/C,"endpoint: mean survival time, dose: 25.0 mg/kg/injection, schedule: Q01DX009 (ip), vehicle: Klucel (hydroxypropylcellulose) (HPC)",102 % of control
same,T/C,"endpoint: mean survival time, dose: 32.0 mg/kg/injection, schedule: Q01DX001 (ip), vehicle: saline",107 % of control
same,T/C,"endpoint: mean survival time, dose: 32.0 mg/kg/injection, schedule: Q01DX001 (sc), vehicle: saline",116 % of control
same,T/C,"endpoint: mean survival time, dose: 32.0 mg/kg/injection, schedule: Q03HX016 (ip), vehicle: saline",117 % of control
same,T/C,"endpoint: mean survival time, dose: 32.0 mg/kg/injection, schedule: Q03HX024 (ip), vehicle: saline",184 % of control
same,T/C,"endpoint: mean survival time, dose: 32.0 mg/kg/injection, schedule: Q04DX003 (ip), vehicle: saline",116 % of control
same,T/C,"endpoint: mean survival time, dose: 32.0 mg/kg/injection, schedule: Q08DX002 (ip), vehicle: saline",114 % of control
same,T/C,"endpoint: mean survival time, dose: 50.0 mg/kg/injection, schedule: Q01DX009 (ip), vehicle: Klucel (hydroxypropylcellulose) (HPC)",120 % of control
same,T/C,"endpoint: mean survival time, dose: 64.0 mg/kg/injection, schedule: Q01DX001 (ip), vehicle: saline",108 % of control
same,T/C,"endpoint: mean survival time, dose: 64.0 mg/kg/injection, schedule: Q01DX001 (sc), vehicle: saline",111 % of control
same,T/C,"endpoint: mean survival time, dose: 64.0 mg/kg/injection, schedule: Q01DX009 (ip), vehicle: saline",174 % of control
same,T/C,"endpoint: mean survival time, dose: 64.0 mg/kg/injection, schedule: Q01DX009 (oral), vehicle: saline",121 % of control
same,T/C,"endpoint: mean survival time, dose: 64.0 mg/kg/injection, schedule: Q01DX009 (sc), vehicle: saline",156 % of control
same,T/C,"endpoint: mean survival time, dose: 64.0 mg/kg/injection, schedule: Q03HX008 (ip), vehicle: saline",150 % of control
same,T/C,"endpoint: mean survival time, dose: 64.0 mg/kg/injection, schedule: Q03HX016 (ip), vehicle: saline",151 % of control
same,T/C,"endpoint: mean survival time, dose: 64.0 mg/kg/injection, schedule: Q03HX024 (ip), vehicle: saline",94 % of control
same,T/C,"endpoint: mean survival time, dose: 64.0 mg/kg/injection, schedule: Q08DX002 (ip), vehicle: saline",113 % of control
same,T/C,"endpoint: mean survival time, dose: 120.0 mg/kg/injection, schedule: Q01DX001 (ip), vehicle: acetone",113 % of control
same,T/C,"endpoint: mean survival time, dose: 120.0 mg/kg/injection, schedule: Q01DX009 (ip), vehicle: acetone",118 % of control
same,T/C,"endpoint: mean survival time, dose: 128.0 mg/kg/injection, schedule: Q01DX001 (ip), vehicle: saline",110 % of control
same,T/C,"endpoint: mean survival time, dose: 128.0 mg/kg/injection, schedule: Q01DX001 (sc), vehicle: saline",115 % of control
same,T/C,"endpoint: mean survival time, dose: 128.0 mg/kg/injection, schedule: Q01DX009 (ip), vehicle: saline",101 % of control
same,T/C,"endpoint: mean survival time, dose: 128.0 mg/kg/injection, schedule: Q01DX009 (sc), vehicle: saline",111 % of control
same,T/C,"endpoint: mean survival time, dose: 128.0 mg/kg/injection, schedule: Q08DX002 (ip), vehicle: saline",111 % of control
same,T/C,"endpoint: mean survival time, dose: 180.0 mg/kg/injection, schedule: Q01DX001 (ip), vehicle: acetone",106 % of control
same,T/C,"endpoint: mean survival time, dose: 256.0 mg/kg/injection, schedule: Q01DX001 (ip), vehicle: saline",122 % of control
same,T/C,"endpoint: mean survival time, dose: 256.0 mg/kg/injection, schedule: Q01DX001 (oral), vehicle: saline",110 % of control
same,T/C,"endpoint: mean survival time, dose: 256.0 mg/kg/injection, schedule: Q01DX001 (sc), vehicle: saline",115 % of control
same,T/C,"endpoint: mean survival time, dose: 256.0 mg/kg/injection, schedule: Q01DX009 (oral), vehicle: saline",124 % of control
same,T/C,"endpoint: mean survival time, dose: 400.0 mg/kg/injection, schedule: Q01DX001 (ip), vehicle: acetone",120 % of control
same,T/C,"endpoint: mean survival time, dose: 512.0 mg/kg/injection, schedule: Q01DX001 (oral), vehicle: saline",117 % of control
same,T/C,"endpoint: median survival time, dose: 10.0 mg/kg/injection, schedule: Q01DX009 (ip), vehicle: water",102 % of control
same,T/C,"endpoint: median survival time, dose: 40.0 mg/kg/injection, schedule: Q01DX009 (ip), vehicle: water",150 % of control
same,T/C,"endpoint: median survival time, dose: 160.0 mg/kg/injection, schedule: Q01DX009 (ip), vehicle: water",103 % of control
O=C(O)CC1=C(c2ccc3ccccc3c2)CCC1=O,T/C,"endpoint: mean survival time, dose: 100.0 mg/kg/injection, schedule: Q01DX001 (ip), vehicle: saline",98 % of control
same,T/C,"endpoint: mean survival time, dose: 200.0 mg/kg/injection, schedule: Q01DX001 (ip), vehicle: saline",98 % of control
same,T/C,"endpoint: mean survival time, dose: 400.0 mg/kg/injection, schedule: Q01DX001 (ip), vehicle: saline",98 % of control
C=C1C(=O)C23[C@H](O)C1CC[C@H]2[C@]12COC3(O)[C@@H](O)[C@@H]1C(C)(C)CC[C@@H]2O,T/C,"endpoint: mean survival time, dose: 1.56 mg/kg/injection, schedule: Q01DX009 (ip), vehicle: saline with Tween-80",97 % of control and 111 % of control
same,T/C,"endpoint: mean survival time, dose: 3.12 mg/kg/injection, schedule: Q01DX009 (ip), vehicle: saline with Tween-80",102 % of control and 103 % of control
same,T/C,"endpoint: mean survival time, dose: 4.5 mg/kg/injection, schedule: Q01DX009 (ip), vehicle: Klucel (hydroxypropylcellulose) (HPC)",93 % of control and 105 % of control and 107 % of control
same,T/C,"endpoint: mean survival time, dose: 6.25 mg/kg/injection, schedule: Q01DX009 (ip), vehicle: saline with Tween-80",96 % of control and 102 % of control
same,T/C,"endpoint: mean survival time, dose: 9.0 mg/kg/injection, schedule: Q01DX009 (ip), vehicle: Klucel (hydroxypropylcellulose) (HPC)",95 % of control and 97 % of control
same,T/C,"endpoint: mean survival time, dose: 12.5 mg/kg/injection, schedule: Q01DX009 (ip), vehicle: saline with Tween-80",97 % of control and 105 % of control
same,T/C,"endpoint: mean survival time, dose: 18.0 mg/kg/injection, schedule: Q01DX009 (ip), vehicle: Klucel (hydroxypropylcellulose) (HPC)",93 % of control and 101 % of control and 107 % of control
same,T/C,[2],102 % of control and 105 % of control
same,T/C,"endpoint: mean survival time, dose: 36.0 mg/kg/injection, schedule: Q01DX009 (ip), vehicle: Klucel (hydroxypropylcellulose) (HPC)",90 % of control and 107 % of control
